The source of these data is patent US20100216779A1 (GLAXOSMITHKLINE LLC, priority 2007, published 2010).

Common to all, as to assay type: cell-based
The subject of one assay is COLO205 (colon). Put plainly: Inhibition of cell proliferation, CellTiter-Glo, COLO205. The conditions noted are these: Homo sapiens, COLO 205, 72 h. In a few lines: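 Exponentially growing COLO205 cells in medium with 10% FBS were plated below 2000 cells/well at 37 °C, 5% CO2. Untreated wells served as controls.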
In general terms: In ATP-based viability assays light output follows the ATP content of the culture.

The subject of assay [1] is NCI-H929 (multiple myeloma). The assay is described as follows: Inhibition of cell proliferation, CellTiter-Glo, NCI-H929. The conditions noted are these: Homo sapiens, 72 h. In a few lines: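 Cells were grown in medium with 10% FBS at 37° C, 5% CO2. Cell number was read as CellTiter-Glo luminescence (cellular ATP), with untreated wells as control.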
The target in assay [2] is T1, human IGF-1R (NIH-3T3 cells over expressing human IGF-1R) (Homo sapiens, UniProt P08069).
T1 construct: expressed in transfected cells; host or cells: NIH-3T3 (mouse fibroblasts)
The assay is described as follows: IGF-1R cellular autophosphorylation (DELFIA). The conditions noted are these: IGF-1 stimulated. Summed up:
(§1)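 Receptor-overexpressing NIH-3T3, 10% FBS, 37 °C; cpd 30 uM–1.5 nM × 2 h; stim IGF-1 30 ng/mL (IGF-1R) or insulin 3 ug/mL (IR), 15 min; lysate DELFIA, Eu anti-pTyr; % of stimulated signal.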

In assay [3] the target is T2, IR (NIH-3T3 cells over expressing human IGF-1R or IR) (Homo sapiens, UniProt P06213).
T2 construct: expressed in transfected cells; host or cells: NIH-3T3 (mouse fibroblasts)
Put plainly: IR cellular autophosphorylation (DELFIA). The conditions noted are these: NIH-3T3 cells over expressing IR, insulin stimulated. Summed up:
as §1

T2 sequence (P06213 28-1382): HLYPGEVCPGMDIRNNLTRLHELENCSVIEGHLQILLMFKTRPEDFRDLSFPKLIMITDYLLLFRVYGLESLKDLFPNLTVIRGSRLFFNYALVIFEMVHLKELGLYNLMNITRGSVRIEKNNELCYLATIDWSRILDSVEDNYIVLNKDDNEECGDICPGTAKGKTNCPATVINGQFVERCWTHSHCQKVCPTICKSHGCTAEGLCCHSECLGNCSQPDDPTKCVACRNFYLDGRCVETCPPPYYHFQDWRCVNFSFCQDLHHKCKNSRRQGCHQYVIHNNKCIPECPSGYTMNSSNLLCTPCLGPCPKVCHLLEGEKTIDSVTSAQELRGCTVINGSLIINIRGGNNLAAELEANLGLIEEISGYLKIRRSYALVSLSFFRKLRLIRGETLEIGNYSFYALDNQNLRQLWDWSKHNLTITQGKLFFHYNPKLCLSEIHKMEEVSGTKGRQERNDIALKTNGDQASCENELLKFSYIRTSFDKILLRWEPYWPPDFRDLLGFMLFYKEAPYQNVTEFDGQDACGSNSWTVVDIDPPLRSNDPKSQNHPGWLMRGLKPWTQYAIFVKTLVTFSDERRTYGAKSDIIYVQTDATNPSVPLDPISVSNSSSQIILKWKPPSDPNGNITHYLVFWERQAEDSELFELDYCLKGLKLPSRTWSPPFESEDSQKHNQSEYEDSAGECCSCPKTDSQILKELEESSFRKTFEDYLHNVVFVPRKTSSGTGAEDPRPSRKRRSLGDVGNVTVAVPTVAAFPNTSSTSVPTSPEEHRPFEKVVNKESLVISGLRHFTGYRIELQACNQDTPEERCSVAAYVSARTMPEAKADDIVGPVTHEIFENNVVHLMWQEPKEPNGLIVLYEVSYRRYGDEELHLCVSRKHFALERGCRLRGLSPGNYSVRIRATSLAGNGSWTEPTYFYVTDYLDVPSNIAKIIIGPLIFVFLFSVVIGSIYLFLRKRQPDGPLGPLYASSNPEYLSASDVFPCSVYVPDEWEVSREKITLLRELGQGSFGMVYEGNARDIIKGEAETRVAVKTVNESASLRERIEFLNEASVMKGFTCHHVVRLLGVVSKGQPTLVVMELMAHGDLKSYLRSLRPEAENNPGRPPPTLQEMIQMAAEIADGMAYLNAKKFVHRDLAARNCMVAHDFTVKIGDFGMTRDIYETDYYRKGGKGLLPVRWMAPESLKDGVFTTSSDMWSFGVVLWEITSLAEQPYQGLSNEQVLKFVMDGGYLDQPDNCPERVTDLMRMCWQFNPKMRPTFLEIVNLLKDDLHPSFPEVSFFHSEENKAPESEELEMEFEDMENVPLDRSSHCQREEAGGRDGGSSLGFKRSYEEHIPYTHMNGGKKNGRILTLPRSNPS
T1 sequence (P08069 31-1367): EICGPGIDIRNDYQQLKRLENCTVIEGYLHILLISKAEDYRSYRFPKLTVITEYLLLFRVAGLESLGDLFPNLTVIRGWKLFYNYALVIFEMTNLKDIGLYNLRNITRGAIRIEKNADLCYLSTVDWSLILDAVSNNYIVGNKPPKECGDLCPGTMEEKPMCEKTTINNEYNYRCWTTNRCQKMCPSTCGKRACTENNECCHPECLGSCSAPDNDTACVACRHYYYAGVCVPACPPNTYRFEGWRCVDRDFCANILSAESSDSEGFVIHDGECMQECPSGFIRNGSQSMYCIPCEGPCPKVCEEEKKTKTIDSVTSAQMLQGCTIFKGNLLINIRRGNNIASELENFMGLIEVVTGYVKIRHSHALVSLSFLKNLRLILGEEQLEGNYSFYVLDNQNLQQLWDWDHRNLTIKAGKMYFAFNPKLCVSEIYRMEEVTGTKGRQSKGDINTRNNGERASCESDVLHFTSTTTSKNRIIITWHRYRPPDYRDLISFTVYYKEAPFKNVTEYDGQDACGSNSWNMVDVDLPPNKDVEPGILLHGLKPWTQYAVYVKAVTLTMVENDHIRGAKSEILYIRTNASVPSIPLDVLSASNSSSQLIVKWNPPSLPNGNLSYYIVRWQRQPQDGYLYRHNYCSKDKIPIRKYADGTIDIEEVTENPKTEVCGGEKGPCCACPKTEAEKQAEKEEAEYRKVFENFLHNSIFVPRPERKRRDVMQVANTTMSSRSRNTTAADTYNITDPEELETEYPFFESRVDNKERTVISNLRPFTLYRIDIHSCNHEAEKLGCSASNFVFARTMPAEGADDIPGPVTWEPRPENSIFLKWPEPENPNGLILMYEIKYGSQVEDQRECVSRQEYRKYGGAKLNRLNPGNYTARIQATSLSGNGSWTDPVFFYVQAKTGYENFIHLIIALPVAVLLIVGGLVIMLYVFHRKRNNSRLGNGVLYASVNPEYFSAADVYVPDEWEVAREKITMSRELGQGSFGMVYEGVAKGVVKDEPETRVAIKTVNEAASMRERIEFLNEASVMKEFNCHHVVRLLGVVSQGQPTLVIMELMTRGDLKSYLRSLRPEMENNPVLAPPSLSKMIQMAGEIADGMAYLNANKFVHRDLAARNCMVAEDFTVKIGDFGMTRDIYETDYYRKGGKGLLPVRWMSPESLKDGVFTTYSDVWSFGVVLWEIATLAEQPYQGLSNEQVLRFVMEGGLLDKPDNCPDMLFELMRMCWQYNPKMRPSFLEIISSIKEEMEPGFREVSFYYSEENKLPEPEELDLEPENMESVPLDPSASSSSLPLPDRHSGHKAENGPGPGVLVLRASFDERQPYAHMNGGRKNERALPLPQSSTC

With `CCOc1cc(N2CCC(CCS(C)(=O)=O)CC2)c(CC)cc1Nc1nccc(-c2c(-c3ccc(OC)c(C(=O)Nc4c(F)cccc4F)c3)nc3ccccn23)n1` [Example 210, N-(2,6-difluorophenyl)-5-[3-{2-[(5-ethyl-2-(ethyloxy)-4-{4-[2-(methylsulfonyl)ethyl]-1-piperidinyl}phenyl)amino]-4-pyrimidinyl}imidazo[1,2-a]pyridin-2-yl)-2-(methyloxy)benzamide], the IC50 was less than 250 nM in the assay with COLO205 (colon), less than 250 nM in assay [1], less than 100 nM in assay [2] and less than 100 nM in assay [3].
On to `CCOc1ccc(-c2nc3ccccn3c2-c2ccnc(Nc3ccc(N4CCC(N5CCN(CCS(C)(=O)=O)CC5)CC4)cc3OC)n2)cc1C(=O)Nc1c(F)cccc1F` [Example 66, N-(2,6-difluorophenyl)-2-(ethyloxy)-5-[3-(2-{[2-(methyloxy)-4-(4-{4-[2-(methylsulfonyl)-ethyl]-1-piperazinyl}-1-piperidinyl)phenyl]amino}-4-pyrimidinyl)imidazo[1,2-a]pyridin-2-yl]benzamide], for which the IC50 is 250 to 1000 nM with COLO205 (colon), less than 250 nM in assay [1], less than 100 nM in assay [2] and less than 100 nM in assay [3].
On to `CCOc1cc(N2CCN(CCS(C)(=O)=O)CC2)c(C)cc1Nc1nccc(-c2c(-c3ccc(OCC)c(C(=O)Nc4c(F)cccc4F)c3)nc3ccccn23)n1` [Example 248, N-(2,6-difluorophenyl)-2-(ethyloxy)-5-(3-{2-[(2-(ethyloxy)-5-methyl-4-{4-[2-(methylsulfonyl)ethyl]-1-piperazinyl}phenyl)amino]-4-pyrimidinyl}imidazo[1,2-a]pyridin-2-yl)benzamide], for which the IC50 with COLO205 (colon) is less than 250 nM; in assay [1], less than 250 nM; in assay [2], less than 100 nM; in assay [3], less than 100 nM.
Take `CCOc1cc(N2CCC(CCS(C)(=O)=O)CC2)c(C)cc1Nc1nccc(-c2c(-c3cccc(C(=O)Nc4c(F)cccc4F)c3)nc3ccccn23)n1` [Example 221, N-(2,6-difluorophenyl)-3-(3-{2-[(2-(ethyloxy)-5-methyl-4-{4-[2-(methylsulfonyl)ethyl]-1-piperidinyl}phenyl)amino]-4-pyrimidinyl}imidazo[1,2-a]pyridin-2-yl)benzamide]: the IC50 is 250 to 1000 nM in the assay with COLO205 (colon), less than 250 nM in assay [1], less than 100 nM in assay [2] and less than 100 nM in assay [3].
Turning to `COc1cc(N2CCC(N3CCN(CCF)CC3)CC2)ccc1Nc1nccc(-c2c(-c3cccc(C(=O)Nc4c(F)cccc4F)c3)nc3c(C)cccn23)n1` [Example 60, N-(2,6-difluorophenyl)-3-[3-(2-{[4-{4-[4-(2-fluoroethyl)-1-piperazinyl]-1-piperidinyl}-2-(methyloxy)phenyl]amino}-4-pyrimidinyl)-8-methylimidazo[1,2-a]pyridin-2-yl]benzamide], the IC50 was 250 to 1000 nM with COLO205 (colon), 250 to 1000 nM in assay [1], less than 100 nM in assay [2] and less than 100 nM in assay [3].
With `COc1cc(C2CCN(CC(C)C)CC2)ccc1Nc1nccc(-c2c(-c3cccc(C(=O)Nc4c(F)cccc4F)c3)nc3ccccn23)n1` [Example 162, N-(2,6-difluorophenyl)-3-{3-[2-({2-(methyloxy)-4-[1-(2-methylpropyl)-4-piperidinyl]phenyl}amino)-4-pyrimidinyl]imidazo[1,2-a]pyridin-2-yl}benzamide], the IC50 was 250 to 1000 nM in the assay on COLO205 (colon), less than 250 nM in assay [1], less than 100 nM in assay [2] and less than 100 nM in assay [3].
For `COc1cc(N2CCC(N3CCN4CCOC[C@@H]4C3)CC2)ccc1Nc1nccc(-c2c(-c3ccc(OC)c(C(=O)Nc4c(F)cccc4F)c3)nc3ccccn23)n1` [Example 88, N-(2,6-difluorophenyl)-5-[3-(2-{[4-{4-[(9aS)-hexahydropyrazino[2,1-c][1,4]oxazin-8(1H)-yl]-1-piperidinyl}-2-(methyloxy)phenyl]amino}-4-pyrimidinyl)imidazo[1,2-a]pyridin-2-yl]-2-(methyloxy)benzamide], the IC50 with COLO205 (colon) was more than 1000 nM; in assay [1], less than 250 nM; in assay [2], less than 100 nM; in assay [3], less than 100 nM.
For the molecule `COc1cc(N2CCC(N3CCN(CCF)CC3)CC2)ccc1Nc1nccc(-c2c(-c3cccc(C(=O)Nc4c(F)cccc4F)c3)nc3cc(F)ccn23)n1` [Example 194, N-(2,6-difluorophenyl)-3-[7-fluoro-3-(2-{[4-{4-[4-(2-fluoroethyl)-1-piperazinyl]-1-piperidinyl}-2-(methyloxy)phenyl]amino]-4-pyrimidinyl)imidazo[1,2-a]pyridin-2-yl]benzamide], the IC50 is 250 to 1000 nM with COLO205 (colon), 250 to 1000 nM in assay [1], less than 100 nM in assay [2] and 100 to 500 nM in assay [3].
In the case of `COc1cc(N2CCC(N3CCN(CCF)CC3)CC2)ccc1Nc1nccc(-c2c(-c3cccc(C(=O)Nc4c(F)cccc4F)c3)nc3cc(C(F)(F)F)ccn23)n1` [Example 189, N-(2,6-difluorophenyl)-3-[3-(2-{[4-{4-[4-(2-fluoroethyl)-1-piperazinyl]-1-piperidinyl}-2-(methyloxy)phenyl]amino}-4-pyrimidinyl)-7-(trifluoromethyl)imidazo[1,2-a]pyridin-2-yl]benzamide], the IC50 is more than 1000 nM in the assay on COLO205 (colon), 250 to 1000 nM in assay [1], 100 to 500 nM in assay [2] and more than 500 nM in assay [3].
Consider `COc1cc(N2CCC(N3CCN(S(C)(=O)=O)CC3)CC2)ccc1Nc1nccc(-c2c(-c3cccc(C(=O)Nc4c(F)cccc4F)c3)nc3c(C)cccn23)n1` [Example 68, N-(2,6-difluorophenyl)-3-(8-methyl-3-{2-[(2-(methyloxy)-4-{4-[4-(methylsulfonyl)-1-piperazinyl]-1-piperidinyl}phenyl)amino]-4-pyrimidinyl}imidazo[1,2-a]pyridin-2-yl)benzamide], for which the IC50 with COLO205 (colon) fell in the range of 250 to 1000 nM; in assay [1] it was 250 to 1000 nM; in assay [2], 100 to 500 nM; in assay [3] it was 100 to 500 nM.
Take `COc1cc(N2CCC(N3CCN(CCF)CC3)CC2)ccc1Nc1nccc(-c2c(-c3ccc(OC)c(C(=O)Nc4c(F)cccc4F)c3)nc3ccccn23)n1` [Example 61, N-(2,6-difluorophenyl)-5-[3-(2-{[4-{4-[4-(2-fluoroethyl)-1-piperazinyl]-1-piperidinyl}-2-(methyloxy)phenyl]amino}-4-pyrimidinyl)imidazo[1,2-a]pyridin-2-yl]-2-(methyloxy)benzamide]: the IC50 in the assay with COLO205 (colon) was 250 to 1000 nM; in assay [1] it was less than 250 nM; in assay [2], less than 100 nM; in assay [3], less than 100 nM.
Turning to `COc1cc(N2CCC(N3CCN(CCF)C(=O)C3)CC2)ccc1Nc1nccc(-c2c(-c3cccc(C(=O)Nc4c(F)cccc4F)c3)nc3ccccn23)n1` [Example 121, N-(2,6-difluorophenyl)-3-[3-(2-{[4-{4-[4-(2-fluoroethyl)-3-oxo-1-piperazinyl]-1-piperidinyl}-2-(methyloxy)phenyl]amino]-4-pyrimidinyl)imidazo[1,2-a]pyridin-2-yl]benzamide], the IC50 with COLO205 (colon) was 250 to 1000 nM; in assay [1], less than 250 nM; in assay [2], less than 100 nM; in assay [3], less than 100 nM.
On to `COc1cc(C2CCN(CCS(C)(=O)=O)CC2)ccc1Nc1nccc(-c2c(-c3cccc(C(=O)Nc4c(F)cccc4F)c3)nc3ccccn23)n1` [Example 180, N-(2,6-difluorophenyl)-3-(3-{2-[(2-(methyloxy)-4-{1-[2-(methylsulfonyl)ethyl]-4-piperidinyl}phenyl)amino]-4-pyrimidinyl}imidazo[1,2-a]pyridin-2-yl)benzamide], for which the IC50 in the assay on COLO205 (colon) was 250 to 1000 nM; in assay [1], less than 250 nM; in assay [2] it was less than 100 nM; in assay [3], less than 100 nM.
As for `CCOc1cc(N2CCC(N3CCN(CCF)CC3)CC2)ccc1Nc1nccc(-c2c(-c3cccc(C(=O)Nc4c(F)cccc4F)c3)nc3ccccn23)n1` [Example 116, N-(2,6-difluorophenyl)-3-(3-{2-[(2-(ethyloxy)-4-{4-[4-(2-fluoroethyl)-1-piperazinyl]-1-piperidinyl}phenyl)amino]-4-pyrimidinyl}imidazo[1,2-a]pyridin-2-yl)benzamide], the IC50 is 250 to 1000 nM with COLO205 (colon), 250 to 1000 nM in assay [1], less than 100 nM in assay [2] and less than 100 nM in assay [3].
Regarding `COc1cc(N2CCC(N3CCN(CCS(C)(=O)=O)CC3)CC2)ccc1Nc1nccc(-c2c(-c3cccc(C(=O)Nc4c(F)cccc4F)c3)nc3ccccn23)n1` [Example 59, N-(2,6-difluorophenyl)-3-[3-(2-{[2-(methyloxy)-4-(4-{4-[2-(methylsulfonyl)ethyl]-1-piperazinyl}-1-piperidinyl)phenyl]amino}-4-pyrimidinyl)imidazo[1,2-a]pyridin-2-yl]benzamide], the IC50 is 250 to 1000 nM in the assay on COLO205 (colon), less than 250 nM in assay [1], less than 100 nM in assay [2] and less than 100 nM in assay [3].
`CCOc1cc(N2CCN(C(C)C)CC2)ccc1Nc1nccc(-c2c(-c3ccc(OC)c(C(=O)Nc4c(F)cccc4F)c3)nc3ccccn23)n1` [Example 172, N-(2,6-difluorophenyl)-5-{3-[2-({2-(ethyloxy)-4-[4-(1-methylethyl)-1-piperazinyl]phenyl}-amino)-4-pyrimidinyl]imidazo[1,2-a]pyridin-2-yl}-2-(methyloxy)benzamide]: the IC50 was 250 to 1000 nM with COLO205 (colon), less than 250 nM in assay [1], less than 100 nM in assay [2] and less than 100 nM in assay [3].

By IC50 is commonly meant the concentration needed to halve the response being measured. Lower therefore signals inhibition by little substance.
